The text below walks through data of patent US20250032624A1, “SMALL MOLECULE DEGRADATION METHODS FOR TREATING ALS/FTD” (University of Florida Research Foundation, Incorporated, priority 2021, published 2025).

The subject of data set [1] is RAN translation of r(G4C2)66. The experiment in a line: RAN translation assay in transfected HEK293T cells. It counts as cell-based. The settings on record: read-out: IC50 of GFP signal (RAN translation). The protocol: FIG. 8A is a schematic of co-transfection of a No ATG-d(G4C2)66-GFP (SEQ ID NO: 45) plasmid and an ATG-mCherry plasmid into HEK293T cells allows for RAN translation to be measured based on the GFP signal. The mCherry signal measures canonical translation. […] Error bars represent SD.
HEK293T cells were cultured according to the methods described above. After reaching ˜80% confluency, HEK293T cells were batch-transfected, according to the manufacturer's protocol, in 100 mm dishes using the Lipofectamine 3000 transfection system (Thermo Fischer) for 5 hours with […] of a plasmid encoding r(G4C2)66-no ATG-nano-luciferase and 1 μg of a plasmid encoding SV40-Firefly luciferase (Life Technologies). Cells were seeded into a 384-well plate and incubated overnight. Compounds were treated in <0.1% DMSO final concentration for 24 hours. RAN and canonical translation were measured using a Dual-Luciferase® Reporter Assay System (Promega) following the manufacturer's protocol. Experiments were performed as biological triplicates (n=3). […] in untransfected cells were measured to determine the background signal.

Data set [2] relates to lymphoblastoid cell lines (LCLs). The data set is described as follows: Cell viability in LCLs. It counts as cell-based, human. The settings on record: doses up to 1 μM. The protocol: Patient-derived LCLs were seeded overnight in 96-well plates (˜10^4 cells/well) and treated with compounds for 96 hours. Cell viability was measured using the CellTiter-Fluor™ Cell Viability Assay (Promega) per the manufacturer's protocol. iPSC cell viability was measured by seeding cells in Matrigel-coated 6-well plates with Basal medium (iPSC maintenance described above). After overnight incubation, the medium was replaced with fresh medium containing compounds diluted in 0.1% DMSO. Cells were treated with compound for 96 hours. Cell viability was measured using the AlamarBlue™ Cell Viability Reagent (DAL1025, Thermo Fisher Scientific) per the manufacturer's protocol. iPSN cell viability was measured by […]

Data set [3] concerns r(G4C2)^exp-containing C9orf72 transcript. The data set is described as follows: C9orf72 variants by RT-qPCR in brain of +/+PWR500 BAC mice. It counts as in vivo, mouse. The settings on record: 3 weeks. The protocol: (§1) A total of 20 age- and gender-matched mice (12 +/+PWR500 [5 Male and 7 Female] and 8 WT [4 Male and 4 Female]), ranging from 18-21 weeks old were used in therapeutic efficacy studies (Table 4). Mice were treated with a single bolus injection of 33 nmol of compound 2 formulated in 1% (v/v) DMSO/99% water, administered by an intracerebroventricular injection (ICV). Three weeks post injection, mice were euthanized, and tissue was harvested for study.
Postmortem brain tissue was harvested and sliced along the sagittal plane at the midline. The left hemisphere was frozen for RNA and protein analysis. Frozen brain tissue was homogenized in 300 μL Tris-EDTA buffer with a 1:5 w/v ratio of 2× Protease and Phosphatase Inhibitors. RNA was extracted from half of the homogenized tissue solution (150 μL) using Triazol LS (added at a 1:3 ratio to the homogenized tissue). The Triazol/tissue solution was centrifuged for 15 minutes at 16,000 rpm and the supernatant was collected. An equal volume of 100% ethanol was added to the supernatant, and RNA was purified using the Direct-zol RNA Kit (Zymo Research) per the manufacturer's protocol. RT-qPCR was then performed as described above. Expression levels of mRNAs were normalized to mouse β-actin.
A general note: Quantitative PCR measures a nucleic acid by following its amplification.

In data set [4] the test system is poly(GP), poly(GA) and TDP-43 inclusions. The data set is described as follows: Immunohistochemistry of cortex slices of +/+PWR500 mice. The settings on record: IHC. It counts as in vivo, mouse. The protocol: as §1
Postmortem brain tissue was harvested and sliced along the sagittal plane at the midline. The right hemisphere was stored for 48 hours in 10% neutral buffered formalin. Tissue processing, embedding and sectioning were then performed by the Scripps Florida Histology Core. Formalin-fixed tissue was processed on a Sakura Tissue-Tek VIP 5 paraffin processor. Tissue was first embedded in paraffin, sectioned at 4 μm, and then mounted on positively charged slides. Slides were stained with primary antibody (see below) using the Leica BOND-MAX platform. Slides were then subjected to the Leica Refine Detection Kit containing the secondary polymer, DAB chromagen, and the counterstain. Slides were dehydrated in graded alcohols and cleared in xylene, before being cover slipped with a permanent mounting medium (Cytoseal 60; Thermo Scientific).

[5] abbreviates: single ICV injection of 10 mg/kg, total brain tissue.

Consider `CCOC(=O)C1=C(Nc2ccccc2)S/C(=C\c2ccc(OCCOCCOCCOCCNC(=O)CCCOc3ccc4c(c3)c3cc5c(C(=O)N[C@H](C)CN(C)C)nccc5c(C)c3n4C)c(O)c2)C1=O` [ALS Compound Formula I], for which the IC50 in data set [1] was roughly 500 nM. Further, the toxicity entry in data set [2] is reported as “no significant toxicity”. In addition, in data set [3] (setting [5]), the “decrease of C9orf72 intron 1 abundance” value is roughly 25% and the “decrease of exon 2-3 abundance” value is roughly 20%. Moreover, in data set [3] (single ICV injection), the “exon 1b abundance” value is “unchanged” and the “exon 1b to exon 2 junction (human C9orf72 abundance)” value is recorded as “unchanged”. Moreover, in data set [4], the TDP-43 inclusions entry is given as “significantly reduced”, the “poly(GA) inclusions” value is “significantly reduced” and the “poly(GP) inclusions” value is reported as “significantly reduced”.

What is called IC50 is the concentration at which inhibition is half-maximal.
